Reference: PMC5648515, “A novel small molecule inhibitor of p32 mitochondrial protein overexpressed in glioma” (Journal of Translational Medicine, 2017)

Target: T1, p32 (C1qBP) (Homo sapiens, UniProt Q07021)
T1 construct: Human recombinant p32 (OriGene)
T1 sequence (Q07021 74-282): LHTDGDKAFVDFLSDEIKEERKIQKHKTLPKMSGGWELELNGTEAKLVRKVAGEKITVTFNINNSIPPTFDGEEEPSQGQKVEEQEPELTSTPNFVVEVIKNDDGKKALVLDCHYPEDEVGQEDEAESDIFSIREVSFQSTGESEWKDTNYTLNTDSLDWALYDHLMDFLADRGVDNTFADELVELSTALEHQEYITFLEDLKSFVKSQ
Test: fluorescence polarization competition with 5-FAM-labelled cyclic LyP-1 peptide; protein thermal shift with […] M36
Assay type: binding

## O=C(NCCCNC(=O)Nc1cccc(C2=NCCN2)c1)Nc1cccc(C2=NCCN2)c1 [M36]
  p32 thermal shift stability change: P32 protein stability was altered by M36 as observed by a shift in the melting curve of the protein
